The experiment concerns the target ileal bile acid cotransporter (iBAT) (Homo sapiens (Human), UniProt Q12908). As to the kind of experiment: Human iBAT inhibition: [3H]-taurocholate uptake into HEK293 cells expressing human iBAT. Format: cell-based. As to conditions: HEK293 cells transduced with human iBAT Bacmam virus, 90 minutes at ambient temperature, mean of at least 2 datapoints. Here is the method: Method for Determination of Human iBAT Inhibition:
In preparation for measurement of bile acid uptake into cells expressing the ileal bile acid cotransporter (iBAT), HEK293 cells were cultured in DMEM/F12 supplemented with 10% FBS. Twenty four hours prior to running an experiment, cells were harvested when at a confluence of 80-90%. Cells were seeded in poly-d-lysine coated plates at 50,000 cells per well, and human iBAT Bacmam virus was added such that each well contains 3.67×10e6 pfu (73.4pfu/cell). Each assay plate was covered with Breathe Easy Seal and placed in an incubator for 24 hours to allow expression of the transporter.
On the day of the uptake experiment, 10 mM HEPES was added to Hank's Balanced Salt Solution, and the pH was adjusted to 7.4 with TRIS (HBSSH). The assay buffer was prepared by adding […] [^3H]-taurocholate and 10 μM cold taurocholate to room temperature HBSSH. A separate washing buffer was prepared by adding 10 μM cold taurocholate to HBSSH (˜30 ml per assay plate) and placed on ice. Using 100% DMSO, 8 point, 3-fold dilution curves for each test compound was prepared starting at 200 μM. Similarly, an 8 point dose response curve was prepared of the control compound [(3R,5R)-3-butyl-3-ethyl-7,8-bis(methyloxy)-5-phenyl-2,3,4,5-tetrahydro-1,4-benzothiazepine 1,1-dioxide (Brieaddy, L. E. WO9605188, 1996)] starting at 1.8 mM. Drug plates were created by adding 3 μL of each concentration to a v-bottom 96-well plate then diluted 60-fold with 177 μL of assay buffer. Plates were removed from the incubator and allowed to cool to ambient temperature. Media was aspirated, and wells were washed once with 300 μL HBSSH. 50 μL of each dose response curve concentration was added in triplicate by column to the assay plates, reserving column 10 for control (assay buffer+1.67% DMSO) and columns 11 and 12 for the control compound. Plates were incubated at ambient temperature for 90 minutes then the plates were aspirated then washed 1× with 300 μL of wash buffer. 220 μL of Microscint 20 was added to each well, and the plates were sealed. The amount of [^3H]-taurocholate in cell lysate was quantitated using a microplate scintillation counter on the following day.
IC50's can be generated using the formula, y=(Vmax*x^n)/(K^n+x^n).

Structures can show the parent of a compound that is named as a salt.

ileal bile acid cotransporter (iBAT), sequence (Q12908 whole entry): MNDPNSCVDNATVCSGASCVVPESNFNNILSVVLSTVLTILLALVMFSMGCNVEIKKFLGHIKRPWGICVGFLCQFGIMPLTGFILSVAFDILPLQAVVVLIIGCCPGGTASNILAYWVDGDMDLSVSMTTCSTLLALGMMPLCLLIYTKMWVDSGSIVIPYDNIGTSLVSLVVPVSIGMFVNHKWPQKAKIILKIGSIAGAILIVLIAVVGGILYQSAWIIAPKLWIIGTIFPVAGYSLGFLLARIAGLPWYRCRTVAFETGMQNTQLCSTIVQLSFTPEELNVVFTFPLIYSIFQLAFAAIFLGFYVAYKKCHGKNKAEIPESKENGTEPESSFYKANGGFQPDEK

Take `CCCC[C@]1(CC)CS(=O)(=O)c2cc(C(=O)NCC(C)(C)C(=O)O)c(OC)cc2[C@@H](c2ccccc2)N1` [Example 1, 3-({[(3R,5R)-3-butyl-3-ethyl-7-(methyloxy)-1,1-dioxido-5-phenyl-2,3,4,5-tetrahydro-1,4-benzothiazepin-8-yl]carbonyl}amino)-2,2-dimethylpropanoic acid]: the midpoint of inhibition, the IC50, lay at 32 nM.
The value for `CCCC[C@]1(CC)CS(=O)(=O)c2cc(C(=O)NCS(=O)(=O)O)c(OC)cc2[C@@H](c2ccccc2)N1` [Example 2, ({[(3R,5R)-3-butyl-3-ethyl-7-(methyloxy)-1,1-dioxido-5-phenyl-2,3,4,5-tetrahydro-1,4-benzothiazepin-8-yl]carbonyl}amino)methanesulfonic acid] was 11 nM.
With `CCCC[C@]1(CC)CS(=O)(=O)c2cc(C(=O)NCCS(=O)(=O)O)c(OC)cc2[C@@H](c2ccccc2)N1` [Example 3, 2-({[(3R,5R)-3-butyl-3-ethyl-7-(methyloxy)-1,1-dioxido-5-phenyl-2,3,4,5-tetrahydro-1,4-benzothiazepin-8-yl]carbonyl}amino)ethanesulfonic acid trifluoroacetate], the IC50 (as a rule, the concentration that gives 50% inhibition) is 2 nM.
`CCCC[C@]1(CC)CS(=O)(=O)c2cc(C(=O)N(CC(=O)O)CC(=O)O)c(OC)cc2[C@@H](c2ccccc2)N1` [Example 4, 2,2′-({[(3R,5R)-3-butyl-3-ethyl-7-(methyloxy)-1,1-dioxido-5-phenyl-2,3,4,5-tetrahydro-1,4-benzothiazepin-8-yl]carbonyl}imino)diacetic acid hydrochloride] had an IC50 of 2540 nM.
The value for `CCCC[C@]1(CC)CS(=O)(=O)c2cc(CS(=O)(=O)O)c(OC)cc2[C@@H](c2ccccc2)N1` [Example 5, [3R,5R)-3-butyl-3-ethyl-7-(methyloxy)-1,1-dioxido-5-phenyl-2,3,4,5-tetrahydro-1,4-benzothiazepin-8-yl]methanesulfonic acid trifluoroacetate salt] was 4 nM; that for `CCCC[C@]1(CC)CS(=O)(=O)c2cc(CP(=O)(O)O)c(OC)cc2[C@@H](c2ccccc2)N1` [Example 6, {[(3R,5R)-3-butyl-3-ethyl-7-(methyloxy)-1,1-dioxido-5-phenyl-2,3,4,5-tetrahydro-1,4-benzothiazepin-8-yl]methyl}phosphonic acid hydrochloride salt] was 23 nM.
The value for `CCCC[C@]1(CC)CS(=O)(=O)c2cc(CN(CC(=O)O)CC(=O)O)c(OC)cc2[C@@H](c2ccccc2)N1` [Example 7, 2,2′-({[(3R,5R)-3-butyl-3-ethyl-7-(methyloxy)-1,1-dioxido-5-phenyl-2,3,4,5-tetrahydro-1,4-benzothiazepin-8-yl]methyl}imino)diacetic acid hydrochloride salt] was 145 nM; that for `CCCC[C@]1(CC)CS(=O)(=O)c2cc(C(N)=O)c(OC)cc2[C@@H](c2ccccc2)N1` [Example 8, (3R,5R)-3-butyl-3-ethyl-7-(methyloxy)-5-phenyl-2,3,4,5-tetrahydro-1,4-benzothiazepine-8-carboxamide-1,1-dioxide] was 73 nM.
For `CCCC[C@]1(CC)CS(=O)(=O)c2cc(/C=C/C(=O)O)c(OC)cc2[C@@H](c2ccccc2)N1` [Example 9, (2E)-3-[(3R,5R)-3-butyl-3-ethyl-7-(methyloxy)-1,1-dioxido-5-phenyl-2,3,4,5-tetrahydro-1,4-benzothiazepin-8-yl]-2-propenoic acid ammonium salt], the concentration for half-maximal inhibition (IC50) turned out to be 3 nM.
`CCCC[C@]1(CC)CS(=O)(=O)c2cc(CCC(=O)O)c(OC)cc2[C@@H](c2ccccc2)N1` [Example 10, 3-[(3R,5R)-3-butyl-3-ethyl-7-(methyloxy)-1,1-dioxido-5-phenyl-2,3,4,5-tetrahydro-1,4-benzothiazepin-8-yl]propanoic acid]: the IC50 amounted to 17 nM.
The value for `CCCC[C@]1(CC)CS(=O)(=O)c2cc(CCC(=O)NS(C)(=O)=O)c(OC)cc2[C@@H](c2ccccc2)N1` [Example 11, 3-[(3R,5R)-3-butyl-3-ethyl-7-(methyloxy)-1,1-dioxido-5-phenyl-2,3,4,5-tetrahydro-1,4-benzothiazepin-8-yl]-N-(methylsulfonyl)propanamide] was 20 nM; that for `CCCC[C@]1(CC)CS(=O)(=O)c2cc(CCC(=O)NO)c(OC)cc2[C@@H](c2ccccc2)N1` [Example 12, 3-[(3R,5R)-3-butyl-3-ethyl-7-(methyloxy)-1,1-dioxido-5-phenyl-2,3,4,5-tetrahydro-1,4-benzothiazepin-8-yl]-N-hydroxypropanamide] was 68 nM; that for `CCCC[C@]1(CC)CS(=O)(=O)c2cc(CCC(=O)NCS(=O)(=O)O)c(OC)cc2[C@@H](c2ccccc2)N1` [Example 13, ({3-[(3R,5R)-3-butyl-3-ethyl-7-(methyloxy)-1,1-dioxido-5-phenyl-2,3,4,5-tetrahydro-1,4-benzothiazepin-8-yl]propanoyl}amino)methanesulfonic acid] was 167 nM.
As for `CCCC[C@]1(CC)CS(=O)(=O)c2cc(CCC(=O)NCC(=O)O)c(OC)cc2[C@@H](c2ccccc2)N1` [Example 14, N-{3-[(3R,5R)-3-butyl-3-ethyl-7-(methyloxy)-1,1-dioxido-5-phenyl-2,3,4,5-tetrahydro-1,4-benzothiazepin-8-yl]propanoyl}glycine], the midpoint of inhibition, the IC50, lay at 276 nM.
For `CCCC[C@]1(CC)CS(=O)(=O)c2cc(CCC(=O)NCCS(=O)(=O)O)c(OC)cc2[C@@H](c2ccccc2)N1` [Example 15, 2-({3-[(3R,5R)-3-butyl-3-ethyl-7-(methyloxy)-1,1-dioxido-5-phenyl-2,3,4,5-tetrahydro-1,4-benzothiazepin-8-yl]propanoyl}amino)ethanesulfonic acid], inhibition was half-maximal at 504 nM (IC50).
Molecule `CCCC[C@]1(CC)CS(=O)(=O)c2cc(CCC(=O)NC(C)(C)C(=O)O)c(OC)cc2[C@@H](c2ccccc2)N1` [Example 16, N-{3-[(3R,5R)-3-butyl-3-ethyl-7-(methyloxy)-1,1-dioxido-5-phenyl-2,3,4,5-tetrahydro-1,4-benzothiazepin-8-yl]propanoyl}-2-methylalanine] yielded an IC50 of 731 nM. This IC50 and that of the molecule before are within 1.5-fold of each other.
For the molecule `CCCC[C@]1(CC)CS(=O)(=O)c2cc(CCC(=O)NC(CC(=O)O)CC(=O)O)c(OC)cc2[C@@H](c2ccccc2)N1` [Example 17, 3-({3-[(3R,5R)-3-butyl-3-ethyl-7-(methyloxy)-1,1-dioxido-5-phenyl-2,3,4,5-tetrahydro-1,4-benzothiazepin-8-yl]propanoyl}amino)pentanedioic acid trifluoroacetate salt], 3330 nM corresponded to half-maximal inhibition (IC50).
With `CCCC[C@]1(CC)CS(=O)(=O)c2cc(CCC(=O)N(CC(=O)O)CC(=O)O)c(OC)cc2[C@@H](c2ccccc2)N1` [Example 18, 2,2′-({3-[(3R,5R)-3-butyl-3-ethyl-7-(methyloxy)-1,1-dioxido-5-phenyl-2,3,4,5-tetrahydro-1,4-benzothiazepin-8-yl]propanoyl}imino)diacetic acid], the IC50 is 728 nM.
Regarding `CCCC[C@]1(CC)CS(=O)(=O)c2cc(CCCO)c(OC)cc2[C@@H](c2ccccc2)N1` [Example 19, 3-[(3R,5R)-3-butyl-3-ethyl-7-(methyloxy)-1,1-dioxido-5-phenyl-2,3,4,5-tetrahydro-1,4-benzothiazepin-8-yl]-1-propanol], the IC50 stood at 622 nM.
Molecule `CCCC[C@]1(CC)CS(=O)(=O)c2cc(CCCS(=O)(=O)O)c(OC)cc2[C@@H](c2ccccc2)N1` [Example 20, 3-[(3R,5R)-3-butyl-3-ethyl-7-(methyloxy)-1,1-dioxido-5-phenyl-2,3,4,5-tetrahydro-1,4-benzothiazepin-8-yl]-1-propanesulfonic acid] came in with an IC50 of 4 nM.
With `CCCC[C@]1(CC)CS(=O)(=O)c2cc(CCCP(=O)(O)O)c(OC)cc2[C@@H](c2ccccc2)N1` [Example 21, {3-[(3R,5R)-3-butyl-3-ethyl-7-(methyloxy)-1,1-dioxido-5-phenyl-2,3,4,5-tetrahydro-1,4-benzothiazepin-8-yl]propyl}phosphonic acid trifluoroacetate salt], the IC50 came to 51 nM.
In turn, `CCCC[C@]1(CC)CS(=O)(=O)c2cc(CCCNCCS(=O)(=O)O)c(OC)cc2[C@@H](c2ccccc2)N1` [Example 22, 2-({3-[(3R,5R)-3-butyl-3-ethyl-7-(methyloxy)-1,1-dioxido-5-phenyl-2,3,4,5-tetrahydro-1,4-benzothiazepin-8-yl]propyl}amino)ethanesulfonic acid] gave an IC50 of 2440 nM.
As for `CCCC[C@]1(CC)CS(=O)(=O)c2cc(CCCC(=O)O)c(OC)cc2[C@@H](c2ccccc2)N1` [Example 23, 4-[(3R,5R)-3-butyl-3-ethyl-7-(methyloxy)-1,1-dioxido-5-phenyl-2,3,4,5-tetrahydro-1,4-benzothiazepin-8-yl]butanoic acid trifluoroacetate salt], the IC50 is 2 nM.

The values are drawn from US9040518B2, “Chemical compounds” (GlaxoSmithKline LLC, priority 2010, dated 2015).
